Results reported in US11427548B2 (Arvinas Operations, Inc., priority 2015, dated 2022).
Where two headings read alike, the source gives them in different places.

Target: T1, Androgen Receptor (Homo sapiens, UniProt P10275)
T1 construct: endogenous in cells; host or cells: VCaP cells
T1 sequence (P10275 1-920): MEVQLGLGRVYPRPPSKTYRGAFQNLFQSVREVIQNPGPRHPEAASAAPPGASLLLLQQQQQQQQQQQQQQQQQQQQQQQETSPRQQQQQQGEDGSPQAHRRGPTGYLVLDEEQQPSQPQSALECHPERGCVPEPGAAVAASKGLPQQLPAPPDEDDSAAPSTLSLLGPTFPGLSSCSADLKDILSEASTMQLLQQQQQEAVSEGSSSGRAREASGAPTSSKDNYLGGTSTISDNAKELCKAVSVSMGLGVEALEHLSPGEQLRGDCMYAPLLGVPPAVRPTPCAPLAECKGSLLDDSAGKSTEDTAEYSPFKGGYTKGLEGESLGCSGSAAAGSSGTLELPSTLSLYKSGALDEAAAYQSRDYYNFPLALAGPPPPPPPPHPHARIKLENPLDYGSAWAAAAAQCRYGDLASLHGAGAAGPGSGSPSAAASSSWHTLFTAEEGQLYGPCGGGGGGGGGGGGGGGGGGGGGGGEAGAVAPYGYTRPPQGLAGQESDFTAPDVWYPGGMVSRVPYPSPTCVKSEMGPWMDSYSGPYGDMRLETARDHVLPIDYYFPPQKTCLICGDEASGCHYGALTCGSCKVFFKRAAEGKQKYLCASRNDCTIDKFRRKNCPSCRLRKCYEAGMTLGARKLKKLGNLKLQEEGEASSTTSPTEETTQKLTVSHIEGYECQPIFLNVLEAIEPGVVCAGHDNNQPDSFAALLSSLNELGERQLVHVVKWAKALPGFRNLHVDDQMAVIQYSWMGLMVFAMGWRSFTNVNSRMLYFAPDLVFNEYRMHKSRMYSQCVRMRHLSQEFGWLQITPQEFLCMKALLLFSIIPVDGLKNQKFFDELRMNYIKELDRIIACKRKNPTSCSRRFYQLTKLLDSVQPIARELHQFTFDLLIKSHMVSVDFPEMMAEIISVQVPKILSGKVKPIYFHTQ
Assay: Androgen Receptor ELISA assay (PathScan AR ELISA) in VCaP cells: AR degradation, Dmax and DC50
Format: cell-based
Conditions: Table 36; for DC50: read-out: VCaP DC50; for Dmax: VCaP
Method in brief: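 After 24 h exposure of VCaP cells (charcoal-stripped serum, 0.1 nM R1881 agonist, 0.1% DMSO) to seven half-log compound concentrations, residual AR in lysates was measured by PathScan ELISA (TMB absorbance, 450 nm). Cells were plated at 30,000/well and grown at least 3 days beforehand.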

[1] = VCaP cells, read-out: VCaP Dmax (%)
[2] = read-out: VCaP Dmax (%), VCaP cells

With `Cc1ncsc1-c1ccc([C@H](C)NC(=O)[C@@H]2C[C@@H](O)CN2C(=O)[C@@H](NC(=O)CCCCCCCCc2ccc(C(=O)N[C@H]3C(C)(C)[C@H](Oc4ccc(C#N)c(Cl)c4)C3(C)C)cc2)C(C)(C)C)cc1` [Example 756, (2S,4R)-1-((S)-2-(9-(4-(((1r,3r)-3-(3-chloro-4-cyanophenoxy)-2,2,4,4-tetramethylcyclobutyl)carbamoyl)phenyl)nonan-amido)-3,3-dimethylbutanoyl)-4-hydroxy-N-((S)-1-(4-(4-methylthiazol-5-yl)phenyl)ethyl)pyrrolidine-2-carboxamide] the DC50 (VCaP cells) was 51 to 500 nM and the Dmax [1] was 51 to 70%.
With `CC(C)(C)[C@H](NC(=O)COCCN1CCN(c2ccc(C(=O)N[C@H]3C(C)(C)[C@H](Oc4ccc(C#N)c(Cl)c4)C3(C)C)cn2)CC1)C(=O)N1C[C@H](O)C[C@H]1C(=O)NCc1ccc(C2CC2)cc1` [Example 757, N-((1r,3r)-3-(3-chloro-4-cyanophenoxy)-2,2,4,4-tetramethylcyclobutyl)-6-(4-(2-(2-(((S)-1-((2S,4R)-2-((4-cyclopropylbenzyl)car-bamoyl)-4-hydroxypyrrolidin-1-yl)-3,3-dimethyl-1-oxobutan-2-yl)amino)-2-oxoethoxy)ethyl)pipera-zin-1-yl)nicotinamide] the DC50 (VCaP cells) was greater than 501 nM and the Dmax [1] was 26 to 50%.
Molecule `CC(C)(C)[C@H](NC(=O)COCCN1CCN(c2ccc(C(=O)N[C@H]3C(C)(C)[C@H](Oc4ccc(C#N)c(Cl)c4)C3(C)C)cn2)CC1)C(=O)N1C[C@H](O)C[C@H]1C(=O)NCc1ccc(C2CCC2)cc1` [Example 758, N-((1r,3r)-3-(3-chloro-4-cyanophenoxy)-2,2,4,4-tetramethylcyclobutyl)-6-(4-(2-(2-(((S)-1-((2S,4R)-2-((4-cyclobutylbenzyl)carbam-oyl)-4-hydroxypyrrolidin-1-yl)-3,3-dimethyl-1-oxobutan-2-yl)amino)-2-oxoethoxy)ethyl)pipera-zin-1-yl)nicotinamide] has a DC50 (VCaP cells) greater than 501 nM and a Dmax [1] of less than 25%.
`CC(C)(C)[C@H](NC(=O)COCCN1CCN(c2ccc(C(=O)N[C@H]3C(C)(C)[C@H](Oc4ccc(C#N)c(Cl)c4)C3(C)C)cn2)CC1)C(=O)N1C[C@H](O)C[C@H]1C(=O)NCc1ccc(C2CCCC2)cc1` [Example 759, N-((1r,3r)-3-(3-chloro-4-cyanophenoxy)-2,2,4,4-tetramethylcyclobutyl)-6-(4-(2-(2-(((S)-1-((2S,4R)-2-((4-cyclopentylbenzyl)car-bamoyl)-4-hydroxypyrrolidin-1-yl)-3,3-dimethyl-1-oxobutan-2-yl)amino)-2-oxoethoxy)ethyl)pipera-zin-1-yl)nicotinamide] gave a DC50 (VCaP cells) greater than 501 nM and a Dmax [1] of less than 25%.
In the case of `CC(C)(C)[C@H](NC(=O)COCCN1CCN(c2ccc(C(=O)N[C@H]3C(C)(C)[C@H](Oc4ccc(C#N)c(Cl)c4)C3(C)C)cn2)CC1)C(=O)N1C[C@H](O)C[C@H]1C(=O)NCc1ccc(C2CCOCC2)cc1` [Example 760, N-((1r,3r)-3-(3-chloro-4-cyanophenxoy)-2,2,4,4-tetramethylcyclobutyl) 6-(4-(2-(2-(((S)-1-((2S,4R)-4-hydroxy-2-((4-(tetrahydro-2H-pyran-4-yl)benzyl)carbamoyl)pyrrolidin-1-yl)-3,3-dimethyl-1-oxobutan-2-yl)amino)-2-oxoethoxy)ethyl)pipera-zin-1-yl)nicotinamide], the DC50 (VCaP cells) is reported as greater than 501 nM and the Dmax [1] is reported as 26 to 50%.
Molecule `Cc1ncsc1-c1ccc(CNC(=O)[C@@H]2C[C@@H](O)CN2C(=O)[C@@H](C(C)C)N2Cc3ccc(N4CCN(CCCc5ccc(C(=O)N[C@H]6C(C)(C)[C@H](Oc7ccc(C#N)c(C(F)(F)F)c7)C6(C)C)cc5)CC4)cc3C2=O)cc1` [Example 761, (2S,4R)-1-((R)-2-(6-(4-(3-(4-(((1r,3r)-3-(4-cyano-3-(trifluoromethyl)phenxoy)-2,2,4,4-tetramethylcyclobutyl)carbamoyl)phenyl)propyl)piperazin-1-yl)-1-oxoisoindolin-2-yl)-3-methylbutanoyl)-4-hydroxy-N-(4-(4-methylthiazol-5-yl)benzyl)pyrrolidine-2-carboxamide] has a DC50 (VCaP cells) greater than 501 nM and a Dmax [2] of less than 25%.
`Cc1ncsc1-c1ccc(CNC(=O)[C@@H]2C[C@@H](O)CN2C(=O)[C@H](C(C)C)N2Cc3ccc(N4CCN(CCCc5ccc(C(=O)N[C@H]6C(C)(C)[C@H](Oc7ccc(C#N)c(C(F)(F)F)c7)C6(C)C)cc5)CC4)cc3C2=O)cc1` [Example 762, (2S,4R)-1-((S)-2-(6-(4-(3-(4-(((1r,3r)-3-(4-cyano-3-(trifluoromethyl)phenoxy)-2,2,4,4-tetramethylcyclobutyl)carbamoyl)phenyl)propyl)piperazin-1-yl)-1-oxoisoindolin-2-yl)-3-methylbutanoyl)-4-hydroxy-N-(4-(4-methylthiazol-5-yl)benzyl)pyrrolidine-2-carboxamide] showed a DC50 (VCaP cells) greater than 501 nM and a Dmax [2] of less than 25%.
In the case of `Cc1ncsc1-c1ccc([C@H](C)NC(=O)[C@@H]2C[C@@H](O)CN2C(=O)[C@@H](NC(=O)CCCCCCCc2ccc(C(=O)N[C@H]3C(C)(C)[C@H](Oc4ccc(C#N)c(Cl)c4)C3(C)C)cc2)C(C)(C)C)cc1` [Example 763, (2S,4R)-1-((S)-2-(8-(4-(((1r,3r)-3-(3-chloro-4-cyanophenoxy)-2,2,4,4-tetramethylcyclobutyl)carbamoyl)phenyl)octan-amido)-3,3-dimethylbutanoyl)-4-hydroxy-N-((S)-1-(4-(4-methylthiazol-5-yl)phenyl)ethyl)pyrrolidine-2-carboxamide], the DC50 (VCaP cells) is reported as less than 50 nM and the Dmax [1] is reported as greater than 71%.
Work on `Cc1ncsc1-c1ccc([C@H](C)NC(=O)[C@@H]2C[C@@H](O)CN2C(=O)[C@@H](NC(=O)CCCCCCCCCc2ccc(C(=O)N[C@H]3C(C)(C)[C@H](Oc4ccc(C#N)c(Cl)c4)C3(C)C)cc2)C(C)(C)C)cc1` [Example 764, (2S,4R)-1-((S)-2-(10-(4-(((1r,3r)-3-(3-chloro-4-cyanophenoxy)-2,2,4,4-tetramethylcyclobutyl)carbamoyl)phenyl)decan-amido)-3,3-dimethylbutanoyl)-4-hydroxy-N-((S)-1-(4-(4-methylthiazol-5-yl)phenyl)ethyl)pyrrolidine-2-carboxamide] yielded a DC50 (VCaP cells) of 51 to 500 nM and a Dmax [1] of 51 to 70%.
In the case of `Cc1ncsc1-c1ccc([C@H](C)NC(=O)[C@@H]2C[C@@H](O)CN2C(=O)[C@@H](NC(=O)COCCN2CCN(c3ccc(C(=O)N[C@H]4C[C@H](Oc5ccc(C#N)c(Cl)c5)C4)cn3)CC2)C(C)(C)C)cc1` [Example 765, N-((1r,3r)-3-(3-chloro-4-cyanophenoxy)cyclobutyl)-6-(4-(2-(2-(((S)-1-((2S,4R)-4-hydroxy-2-(((S)-1-(4-(4-methylthiazol-5-yl)phenyl)ethyl)carbam-oyl)pyrrolidin-1-yl)-3,3-dimethyl-1-oxobutan-2-yl)amino)-2-oxoethoxy)ethyl)pipera-zin-1-yl)nicotinamide], the DC50 (VCaP cells) is reported as greater than 501 nM and the Dmax [1] is reported as less than 25%.
`Cc1ncsc1-c1ccc([C@H](C)NC(=O)[C@@H]2C[C@@H](O)CN2C(=O)[C@@H](NC(=O)CN2CCN(CCCOCc3cc(C(=O)N[C@@H](C)Cn4ccc(-c5ccc(C#N)c(C(F)(F)F)c5)n4)n[nH]3)CC2)C(C)(C)C)cc1` [Example 766] showed a DC50 (VCaP cells) greater than 501 nM and a Dmax [1] of 26 to 50%.
For `Cc1nc(-c2ccn(C[C@H](C)NC(=O)c3cc(COCCCN4CCN(CC(=O)N[C@H](C(=O)N5C[C@H](O)C[C@H]5C(=O)N[C@@H](C)c5ccc(-c6scnc6C)cc5)C(C)(C)C)CC4)[nH]n3)n2)ccc1C#N` [Example 767, N-((S)-1-(3-(5-cyano-6-methylpyridin-2-yl)-1H-pyrazol-1-yl)propan-2-yl)-5-((3-(4-(2-(((S)-1-((2S,4R)-4-hydroxy-2-(((S)-1-(4-(4-methylthiazol-5-yl)phenyl)ethyl)carbam-oyl)pyrrolidin-1-yl)-3,3-dimethyl-1-oxobutan-2-yl)amino)-2-oxoethyl)piperazin-1-yl)propoxy)methyl)-1H-pyrazole-3-carboxamide], the DC50 (VCaP cells) was greater than 501 nM and the Dmax [1] was 26 to 50%.
`Cc1ncsc1-c1ccc([C@H](C)NC(=O)C2C[C@@H](O)CN2C(=O)C(NC(=O)CCCN2CCN(c3ccc(C(=O)N[C@H]4C(C)(C)[C@H](Oc5ccc(C#N)c(Cl)c5)C4(C)C)cn3)CC2)C(C)(C)C)cc1` (stereo partly drawn) [Example 768, N-((1r,3r)-3-(3-chloro-4-cyanophenoxy)-2,2,4,4-tetramethylcyclobutyl)-6-(4-(4-(((S)-1-((2S,4R)-4-hydroxy-2-(((S)-1-(4-(4-methylthiazol-5-yl)phenyl)ethyl)carbam-oyl)pyrrolidin-1-yl)-3,3-dimethyl-1-oxobutan-2-yl)amino)-4-oxobutyl)piperazin-1-yl)nicotinamide] gave a DC50 (VCaP cells) greater than 501 nM and a Dmax [1] of less than 25%.
